In patent US3966939A, “Novel 2-substituted 6,7-benzomorphan derivatives and salts thereof in analgesic compositions” (Sumitomo Chemical Company, Limited, priority 1972, dated 1976):

What was measured:
[1] = cited from earlier work
[2] = Abstinence syndrome / physical dependency on withdrawal after repeated administration (body weight decrease); assay type: in vivo, male rats of Wistar strain; design: key to Abstinence syndrome: +++: severe decrease (about 5% decrease); ++: moderate decrease; +: mild decrease; -: no decrease; details: rats; for Abstinence syndrome: subcutaneous twice a day, body weight decrease on the day after drug withdrawal; for physical dependency: orally or subcutaneously everyday for over one month
Protocol: (§1) On account of this addiction liability, these analgesics are severely restricted in a therapeutic use.
Note: Groups of male rats of Wistar strain (body weight, 150 g), each group consisting of 20 male rats, were subcutaneously given the test compound twice a day for 4 consecutive weeks. On the next day after drug withdrawal, the body weight was measured. The symbols have the following meanings: +++, severe decrease (about 5% decrease); ++, moderate decrease; +, mild decrease; -, no decrease.

[3] = Subcutaneous writhing test (acetic acid); assay type: in vivo, mice; details: for ED50: Mus musculus, sc, mice, subcutaneous 20 minutes before acetic acid, Litchfeld-Wilcoxon's method; for analgesic activity: in words; for analgesic action compared with pentazocine: subcutaneous writhing test, versus pentazocine
Protocol: […]. Note: The test was based on the specific anatagonism of the test compound to the typical syndrome produced by intraperitoneal injection of 0.6% aqueous acetic acid. The syndrome was characterized by intermittent contractions of the abdomen, twisting and turning of the trunk and extension of the hind legs. A group of 5 mice was used for each dose level. The test compound was administered subcutaneously 20 minutes before the injection of acetic acid. […] The ED50 value was calculated according to the Litchfeld-Wilcoxon's method.

[4] = Addiction / drug dependency in (long term) animal tests; assay type: in vivo
Text: Hitherto, many benzomorphan derivatives (e.g., phenazocine, pentazocine) have been developed as analgesic drugs but most of them have addiction and produce narcotic symptoms at their usual dosages.
as §1

Row | Structure (SMILES) | analgesic activity (known) ([1]; U.S. Pat. No. 3,138,603) | addiction liability (known) ([1]; prior benzomorphan derivatives) | Abstinence syndrome ([2]; 20 mg/kg/day for 4 weeks) | ED50 [3] [mg/kg] | analgesic activity [3] | analgesic action compared with pentazocine [3] | physical dependency [2] | Abstinence syndrome ([2]; 40 mg/kg/day for 4 weeks) | addiction in long term animal tests [4]
1 | CC1C2Cc3ccc(O)cc3C1(C)CCN2C (stereo not drawn) [2'-Hydroxy-2,5,9-trimethyl-6,7-benzomorphan] | potent analgesic activity | show an addition liability | ++ |  |  |  |  |  | 
2 | CC(C)SCCN1CCC2(C)c3cc(O)ccc3CC1C2C (stereo not drawn) [2'-Hydroxy-2-(β-isopropylthioethyl)-5,9-dimethyl-6,7-benzomorphan] |  |  |  | 3.6 | strong analgesic activity | much more potent analgesic action than pentazocine |  |  | 
3 | CCC1C2Cc3ccc(O)cc3C1(CC)CCN2CCSC (stereo not drawn) [2'-Hydroxy-2-(β-methylthioethyl)-5,9-diethyl-6,7-benzomorphan] |  |  |  |  |  |  | did not produce any physical dependency | - | do not show addiction
4 | CSCCN1CCC2(C)c3cc(O)ccc3CC1C2C (stereo not drawn) [2'-Hydroxy-2-(β-methylthioethyl)-5,9-dimethyl-6,7-benzomorphan] |  |  |  | 3.1 | strong analgesic activity | much more potent analgesic action than pentazocine | did not produce any physical dependency | - | do not show addiction
5 | CCC12CCN(CCSC)C(Cc3ccc(O)cc31)C2 (stereo not drawn) [2'-Hydroxy-2-(β-methylthioethyl)-5-ethyl-6,7-benzomorphan] |  |  | - | 0.34 | strong analgesic activity | much more potent analgesic action than pentazocine | did not produce any physical dependency |  | do not show addiction
